The values below come from patent publication US20230037862A1, “SYNTHETIC AGONISTS OF TLR4 RECEPTOR” (UNIVERSITÀ DEGLO STUDI DI MILANO - BICOCCA, priority 2017, published 2023).

Molecules are shown by their SMILES. Entries after “also recorded” stand apart in the source; their conditions may differ.

One assay concerns the target T1, hTLR4 (Homo sapiens, UniProt O00206+Q9Y6Y9).
T1 construct: host or cells: HEK-Blue hTLR4 (HEK cells)
The assay is described as follows: HEK-Blue hTLR4 SEAP reporter assay (NF-κB/AP-1 activation). The assay is classed as cell-based. The conditions noted are these: HEK-Blue hTLR4 cells, 16-18 hours. The method, then: HEK-Blue™ hTLR4 (FIG. 1A) and HEK-Blue™ Null2 (FIG. 1B) cells were treated with the indicated concentrations of compounds FP11, FP111, and with LPS (100 ng/mL) and incubated for 16-18 hours. Results were normalized to stimulation with LPS alone, and are expressed as mean of percentage ±ES. of at least three independent experiments.
HEK-Blue™ hTLR4 cells were treated with increasing concentrations of compound FP11 and of LPS and incubated for 16-18 hours. Results were normalized to maximum activation of the reporter produced by LPS (FIG. 2A) and to maximum activation of the reporter produced by the compound itself (FIG. 2B). Data were fitted to a sigmoidal four-parameter logistic equation in order to determine IC50 values, and expressed as mean of percentage ±ES of at least three independent experiments.
HEK-Blue™ hTLR4 cells are HEK cells transfected so as to stably express human receptors hTLR4, hMD-2, and hCD14 for endotoxin recognition. In addition, said cells have a reporter gene encoding for a secreted alkaline phosphatase (SEAP) μlaced under the control of specific transcription factors (NF-κB and AP-1) activated by the TLR4 signaling pathway. Therefore, the presence of LPS or of an agonist of TLR4 causes receptor dimerization, activation of the signaling pathway and of transcription factors NF-κB and AP-1, and finally SEAP production and secretion into the culture medium. SEAP levels can be subsequently quantitated by incubating the medium with compound p-nitrophenylphosphate (pNPP) and monitoring with a spectrophotometer the formation of p-nitrophenol chromogenic product at 405 nm.
HEK-Blue™ hTLR4 cells (InvivoGen) were cultured according to manufacturer's instruction. […]
Cells were detached using a cell scraper, counted and seeded in a 96-well multiwell plate at a density of 4×10^4 cells per well. […]
The wells' optical density was determined using a microplate reader set at 405 nm.
The results were normalized with positive control (LPS alone) and expressed as a mean of percentage ±SEM of at least three independent experiments.

The target of assay [1] is T2, purified human MD-2 receptor (Homo sapiens, UniProt Q9Y6Y9).
T2 sequence (Q9Y6Y9 19-160): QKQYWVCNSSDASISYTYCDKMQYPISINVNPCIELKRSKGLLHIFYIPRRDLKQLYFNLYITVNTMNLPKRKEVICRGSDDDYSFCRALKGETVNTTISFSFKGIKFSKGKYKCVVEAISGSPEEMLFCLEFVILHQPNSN
The assay is described as follows: MD-2-bound fluorescent molecule (bis-ANS) displacement assay. The assay is classed as binding. The conditions noted are these: MD-2 200 nM, bis-ANS 200 nM. On the procedure: therefore, TLR4 modulators that interact with MD-2 compete with compound bis-ANS, and are able to displace it from MD-2.
Fluorescence was measured on PerkinElmer fluorimeter LS 55 (PerkinElmer, UK) as previously described^[5].
All measurements were done at 20° C. in a 5×5 mm quartz glass cuvette (Hellma Suprasil, Müllheim, Germany). MD-2 protein (200 nM) and 1,1′-Bis(anilino)-4,4′-bis (naphtalene)-8,8′ disulfonate (bis-ANS, 200 nM) were mixed and incubated until reaching stable relative fluorescence units (RFUs) emitted at 420-550 nm under excitation at 385 nm.
Compounds, at different concentrations, were then added, followed by relative fluorescence unit (RFU) measurement at 420-550 nm.

For assay [2], the target named is T2, purified human MD-2 receptor. Nature of the assay: Biotinylated LPS displacement from MD-2 hydrophobic pocket (ELISA). The assay is classed as binding. On the procedure: The ability to displace LPS from MD-2 hydrophobic pocket was assessed by using an ELISA assay. Molecules FP11 and FP111 were added at increasing concentrations to MD-2 which had previously been incubated with biotinylated LPS.
The ability of the compounds to displace LPS from MD-2 hydrophobic pocket was determined by ELISA.
A microtiter plate was coated overnight at 4° C. with 100 μL/well of 5 μg/mL chicken polyclonal anti-MD-2 antibodies, diluted in 50 mM Na2CO3 buffer, pH 9.6, and blocked with 1% BSA in PBS. After washing, 1 μM MD-2 with biotin-labeled LPS was added and incubated for 2 h. After washing, the compounds were added at different concentrations and incubated for 1.5 h.
After washing, 0.5 μg/mL HRP-conjugated streptavidin (Sigma) in PBS was added, followed by detection at 420 nm after the addition of 100 μL of ABTS (Sigma). Chicken anti-MD-2 polyclonal antibodies were prepared against recombinant MD-2 by GenTel (Madison, Wis., USA),
Background: An ELISA detects its analyte on a solid surface through an enzyme-linked reagent.

For assay [3] the target is unchanged. The assay is described as follows: Surface plasmon resonance binding to MD-2. The method, then:
Surface plasmon resonance (SPR) experiments enable the study of direct interactions between the molecules to be characterized and MD-2.
The binding affinity of the compounds to recombinant MD-2 was determined using a Biacore X100 with an NTA sensor chip (Biacore, GE Healthcare, Uppsala, Sweden). Briefly, 0.5 μM MD-2 (in 50 mM TRIS, 150 mM NaCl, 0.5% Tween 20, pH 7.5) was immobilized onto the sensor chip previously activated with 1 min pulse of 10 mM NiSO4. The first flow cell was used as a reference surface to control nonspecific binding.
Both flow cells were incubated with the analyte (in PBS, 5% DMSO, 5% EtOH, pH 7.5) at a flow rate of 10 μL/min at 25° C. at increasing concentrations. The data were analyzed with Biacore Evaluation software. KD values were calculated by global fitting of the equilibrium binding responses from various concentrations of analytes using a 1:1 Langmuir binding model.

T1 sequence (O00206 24-839): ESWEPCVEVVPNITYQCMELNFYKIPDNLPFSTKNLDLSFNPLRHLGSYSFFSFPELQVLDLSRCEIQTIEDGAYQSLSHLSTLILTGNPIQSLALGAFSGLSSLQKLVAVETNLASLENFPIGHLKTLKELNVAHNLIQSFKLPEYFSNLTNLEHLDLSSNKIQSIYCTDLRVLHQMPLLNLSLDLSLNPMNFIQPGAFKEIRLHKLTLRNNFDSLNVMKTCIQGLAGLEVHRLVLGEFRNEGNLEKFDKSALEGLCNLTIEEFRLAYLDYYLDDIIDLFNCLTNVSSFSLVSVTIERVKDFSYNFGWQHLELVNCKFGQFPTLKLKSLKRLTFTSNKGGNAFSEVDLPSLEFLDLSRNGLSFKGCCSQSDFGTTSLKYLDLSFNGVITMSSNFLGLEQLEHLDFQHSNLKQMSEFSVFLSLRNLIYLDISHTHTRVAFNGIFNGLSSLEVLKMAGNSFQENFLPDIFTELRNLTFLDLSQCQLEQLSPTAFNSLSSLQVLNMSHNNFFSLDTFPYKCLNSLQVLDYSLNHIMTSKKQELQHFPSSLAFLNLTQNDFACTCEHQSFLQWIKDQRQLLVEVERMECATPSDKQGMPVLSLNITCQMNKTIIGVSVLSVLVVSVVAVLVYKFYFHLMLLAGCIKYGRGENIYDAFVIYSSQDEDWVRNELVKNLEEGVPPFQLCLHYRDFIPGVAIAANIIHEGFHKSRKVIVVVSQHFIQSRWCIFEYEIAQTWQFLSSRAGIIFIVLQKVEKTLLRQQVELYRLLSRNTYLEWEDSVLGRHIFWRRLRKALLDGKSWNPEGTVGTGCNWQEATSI
T1 sequence (Q9Y6Y9 17-160 limits assumed): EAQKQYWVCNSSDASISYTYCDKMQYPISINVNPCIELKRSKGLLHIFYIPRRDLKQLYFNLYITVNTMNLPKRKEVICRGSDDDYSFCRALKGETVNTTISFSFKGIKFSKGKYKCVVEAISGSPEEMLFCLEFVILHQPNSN

For the compound `CCCCCCCCCCCCCC(=O)NC1C(OC(=O)CCCCCCCCCCCCC)[C@H](OC(=O)CCCCCCCCCCCCC)C(CO)O[C@H]1OP(=O)(O)O` (stereo partly drawn) [FP11, 1-O-Phosphoryl-2-deoxy-4-O-tetradecanoyl 3-O-tetradecanoyl-2-tetradecanoylamino-α-D-glucopiranoside], the “concentrations at which activation of NF-κB and AP-1 is induced” value on hTLR4 (SEAP reporter) was > 5 µM. The same compound returned a half-maximal effective concentration (EC50) at hTLR4 (dose-response curve) of 12.3 µM. Moreover, the “decrease of bis-ANS fluorescence / inhibition of bis-ANS binding to MD-2” value in assay [1] is on record as “concentration-dependent decrease of compound bis-ANS fluorescence; also recorded: inhibits the binding of bis-ANS to MD-2 in a dose-dependent manner”. Further, the “displacement of biotinylated LPS from MD-2” value in assay [2] (160 μM) was 55%. Besides, in assay [2] (increasing concentrations, highest 160 μM), the “ability to displace biotinylated LPS from MD-2 hydrophobic pocket” value was “displaces biotinylated LPS from MD-2 hydrophobic pocket in a dose-dependent manner”. Further, in assay [3], the “direct binding to MD-2 (SPR)” value is recorded as “directly binds the MD-2 hydrophobic pocket”. Also, in assay [3] (SPR, 1:1 Langmuir binding model, 25° C.), the Kd worked out at 6.5 µM.

The EC50 is the concentration giving half of the maximal effect. A higher EC50 goes with lower potency in that assay. For orientation: Kd means the concentration at which binding is half-saturated.
